Laboratory results published in the supplement of paper PMC10307832.

Experiments:
Assay in all cases: relative viability (nuclei count vs DMSO), 5 days (fraction); higher = more cells survive
[1] = compound: NC1(c2ccc(-c3nc4ccn5c(=O)[nH]nc5c4cc3-c3ccccc3)cc2)CCC1 [MK-2206] + Nc1nc2[nH]cc(CCc3ccc(C(=O)N[C@@H](CCC(=O)O)C(=O)O)cc3)c2c(=O)[nH]1 [Pemetrexed] (partner 0.2 µM)
Procedure, shortened: (§1)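 The day after seeding in 1536-well plates, lung cancer cell lines were treated by pin tool with a single drug, or with a fixed anchor-drug dose together with five library-drug doses (not always all listed) in √10 steps. After 5 days, a combined fix-and-stain solution (final 0.05% Triton X-100, 1% formaldehyde, 1 ug/ml Hoechst) was added. Nuclei counted on 4× images gave relative viability as treated counts over vehicle counts, reported as the median of duplicate plates.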

[2] = compound: CS(=O)(=O)N1CCN(Cc2cc3nc(-c4cccc5[nH]ncc45)nc(N4CCOCC4)c3s2)CC1 [Pictilisib] + N=C(N)NC(=N)NCCc1ccccc1 [Phenformin] (partner 250 µM)
Procedure, shortened: as §1

[3] = compound: NC1(c2ccc(-c3nc4ccn5c(=O)[nH]nc5c4cc3-c3ccccc3)cc2)CCC1 [MK-2206] + CS(=O)(=O)CCNCc1ccc(-c2ccc3ncnc(Nc4ccc(OCc5cccc(F)c5)c(Cl)c4)c3c2)o1 [Lapatinib] (partner 2 µM)
Procedure, shortened: as §1

[4] = compound: CS(=O)(=O)N1CCN(Cc2cc3nc(-c4cccc5[nH]ncc45)nc(N4CCOCC4)c3s2)CC1 [Pictilisib] + NC(=O)Nc1cc(-c2cccc(F)c2)sc1C(=O)N[C@H]1CCCNC1 [AZD7762] (partner 0.2 µM)
Procedure, shortened: as §1

[5] = compound: CS(=O)(=O)N1CCN(Cc2cc3nc(-c4cccc5[nH]ncc45)nc(N4CCOCC4)c3s2)CC1 [Pictilisib] + C[C@@H](Oc1cc(-c2cnn(C3CCNCC3)c2)cnc1N)c1c(Cl)ccc(F)c1Cl [Crizotinib] (partner 1 µM)
Procedure, shortened: as §1

| Cell Line | relative viability ([1]; first compound 0.01 µM) | relative viability ([1]; first compound 0.03162 µM) | relative viability ([1]; first compound 0.3162 µM) | relative viability ([1]; first compound 1 µM) | relative viability ([2]; first compound 0.02 µM) | relative viability ([2]; first compound 0.06325 µM) | relative viability ([2]; first compound 0.6325 µM) | relative viability ([2]; first compound 2 µM) | relative viability ([3]; first compound 0.01 µM) | relative viability ([3]; first compound 0.03162 µM) | relative viability ([3]; first compound 0.3162 µM) | relative viability ([3]; first compound 1 µM) | relative viability ([4]; first compound 0.02 µM) | relative viability ([4]; first compound 0.06325 µM) | relative viability ([4]; first compound 0.6325 µM) | relative viability ([4]; first compound 2 µM) | relative viability ([5]; first compound 0.02 µM) | relative viability ([5]; first compound 0.06325 µM) | relative viability ([5]; first compound 0.6325 µM) | relative viability ([5]; first compound 2 µM) |
| --- | --- | --- | --- | --- | --- | --- | --- | --- | --- | --- | --- | --- | --- | --- | --- | --- | --- | --- | --- | --- |
| NCI-H650 | 0.979 | 0.913 | 0.818 | 1.02 | 0.468 | 0.457 | 0.357 | 0.394 | 0.985 | 1.07 | 0.874 | 0.721 | 0.806 | 0.95 | 0.998 | 0.655 | 0.762 | 0.712 | 0.629 | 0.642 |
| A-427 | 1.03 | 0.925 | 1.07 | 1.05 | 0.345 | 0.357 | 0.27 | 0.212 | 1.11 | 1.03 | 1.09 | 1.12 | 0.796 | 0.738 | 0.556 | 0.403 | 0.979 | 0.829 | 0.908 | 0.603 |
| NCI-H2347 | 0.408 | 0.44 | 0.433 | 0.45 | 0.451 | 0.461 | 0.325 | 0.207 | 0.845 | 1.06 | 0.887 | 0.953 | 0.796 | 0.806 | 0.546 | 0.396 | 0.695 | 0.496 | 0.592 | 0.545 |
| NCI-H1793 | 0.908 | 0.863 | 0.844 | 0.783 | 0.387 | 0.38 | 0.221 | 0.203 | 0.616 | 0.742 | 0.745 | 0.617 | 0.449 | 0.404 | 0.226 | 0.142 | – | – | – | – |
| NCI-H1651 | 0.562 | 0.575 | 0.621 | 0.513 | 0.331 | 0.36 | 0.268 | 0.261 | 0.878 | 0.743 | 0.99 | 0.606 | 0.445 | 0.423 | 0.444 | 0.263 | 0.855 | 0.863 | 0.84 | 0.683 |
| HCC-78 | 0.934 | 0.924 | 0.909 | 0.934 | 0.587 | 0.705 | 0.427 | 0.312 | 0.703 | 0.376 | 0.88 | 0.703 | 0.569 | 0.559 | 0.395 | 0.233 | 0.321 | 0.305 | 0.222 | 0.18 |
| NCI-H23 | 0.713 | 0.559 | 0.651 | 0.64 | 0.84 | 0.82 | 0.664 | 0.523 | 0.982 | 0.98 | 1.16 | 1.1 | 0.203 | 0.258 | 0.209 | 0.155 | 0.424 | 0.592 | 0.344 | 0.354 |
| LOU-NH91 | 0.366 | 0.406 | 0.345 | 0.356 | 0.773 | 0.812 | 0.609 | 0.461 | 0.786 | 0.739 | 0.603 | 0.584 | 0.803 | 0.718 | 0.567 | 0.495 | 0.725 | 0.708 | 0.716 | 0.571 |
| LXF-289 | 0.886 | 0.873 | 0.956 | 1.17 | 0.508 | 0.557 | 0.452 | 0.436 | 0.907 | 0.985 | 0.911 | 0.901 | 1.19 | 1.14 | 1.08 | 0.849 | 0.862 | 0.837 | 0.843 | 0.752 |
| NCI-H460 | 0.0681 | 0.0647 | 0.0757 | 0.0577 | 0.549 | 0.534 | 0.266 | 0.0575 | 0.914 | 1.3 | 0.914 | 0.95 | 0.72 | 0.66 | 0.627 | 0.183 | 0.956 | 0.945 | 0.501 | 0.0993 |
| NCI-H1792 | 0.76 | 0.929 | 0.654 | 0.373 | 0.343 | 0.257 | 0.128 | 0.124 | 0.84 | 0.983 | 0.909 | 0.92 | 0.631 | 0.575 | 0.339 | 0.109 | 0.916 | 0.925 | 0.772 | 0.425 |
| EMC-BAC-2 | 0.435 | 0.377 | 0.439 | 0.407 | 0.604 | 0.515 | 0.432 | 0.335 | 0.859 | 0.959 | 0.901 | 0.805 | 1.16 | 1.12 | 0.798 | 0.631 | 0.779 | 0.811 | 0.691 | 0.601 |
| CAL-12T | 1.12 | 1.07 | 1.28 | 1.06 | 0.612 | 0.578 | 0.467 | 0.239 | 0.682 | 0.698 | 0.667 | 0.454 | 0.609 | 0.845 | 0.724 | 0.626 | 0.615 | 0.893 | 0.704 | 0.471 |
| ChaGo-K-1 | 0.267 | 0.268 | 0.265 | 0.265 | 0.438 | 0.529 | 0.42 | 0.33 | – | – | – | – | 0.858 | 0.913 | 0.864 | 0.784 | 1.17 | 1.21 | 1.08 | 0.947 |
| NCI-H1944 | 0.612 | 0.575 | 0.603 | 0.576 | 0.206 | 0.184 | 0.137 | 0.141 | 0.829 | 0.849 | 0.823 | 0.904 | 0.555 | 0.477 | 0.319 | 0.236 | 1.11 | 0.962 | 0.933 | 0.603 |
| SW 900 | 0.494 | – | 0.497 | 0.491 | 0.617 | 0.554 | 0.417 | 0.191 | – | – | – | – | 0.747 | 0.623 | 0.431 | 0.352 | – | – | – | – |
